Measurements: patent publication US12065470B2, “Zinc-charged peptides for the treatment of cancer and alzheimer's disease” (priority 2022, dated 2024)
Values belong to the compound of their own block, whether it stands above or below them. Starred links: 1 amine or outer side, 2 acyl side, 3 side chain; linkers in the order of their positions; H or OH if unused. Positions of bridges follow the written chain, without caps; N, C: chain ends. Non-standard residues stand in square brackets, D forms with d. Residues, ends and D or L forms follow the SMILES beside them. Chains are numbered I, II in the order given. No end group written: not given here. Actinocin(9to1) = Cc1c2oc3c(C)ccc(C(=O)[*:1])c3nc-2c(C(=O)[*:2])c(N)c1=O; NMeV = CN[C@H](C(=O)O)C(C)C; Sar = CNCC(=O)O

Assays:
HT-29 colon cancer cells [1] = experiment: Combination with chemotherapy drugs, apoptosis in HT-29; format: cell-based; settings: for interaction of chemotherapy drug with zinc-charged peptide (apoptosis): drug 6 μg per ml 12 hours, then zinc-charged 4H 4 μM for 6 hours, HT-29
Method: To test this, HT-29 colon cancer cells were pre-incubated with various chemotherapy drugs at 6 μg per ml for 12 hours, then zinc-charged 4H at 4 μM was added for an additional 6 hours. Most chemotherapy drugs take up to 48 hours to see substantial apoptosis, and as such, the cells were pre-incubated with chemotherapy drugs first. The chemotherapy drugs tested included actinomycin (“A”), carmustine (“C”), docorubicin (“Dox”), genistin (“G”), 5-FU, and Tarceva.

Calu-1 lung cancer cells = experiment: Glycolysis (lactate) in Calu-1 cell lysate; format: cell-based; settings: Calu-1, FIG. 8b
Method: (§1) FIG. 8b is a bar graph depicting the level of glycolysis end product lactate in Calu-1 lung cancer cell lysate and of normal WI38 lung cell lysate after incubation with zinc-charged peptide 4H compared to a control of unincubated Calu-1 lung cancer cell lysate and unincubated normal WI38 lung cell lysate.
(§2) The zinc-charged peptides ability to inhibit glycolysis in other cancer cell lines, such as lung cancer, compared to their normal counterparts was also tested. […] To further study this observed phenomena in vivo, normal mice were fed with the zinc-charged 4H for five days, and the glycolysis of normal brain cells were studied. FIG. 9 depicts the results of this study. For this study, two groups of mice having four mice per group were compared, one being the control and the other being fed 0.5 mg of zinc-charged 4H per mouse per day for 5 days orally. After 5 days, brain and muscle tissue was collected, homogenized, and assayed for glycolysis rate.

normal WI38 lung cells = experiment: Glycolysis (lactate) in WI38 cell lysate; format: cell-based; settings: WI38, FIG. 8b
Method: as §1, §2

[2] = tested on: normal colon cell line CCD18Co; experiment: Glycolysis (lactate) in CCD18Co cell lysate; format: cell-based; settings: FIG. 8a
Method: as §1, with “FIG. 8a” for “FIG. 8b”, “in HT-29 colon” for “in Calu-1 lung”, “normal CCD18Co colon” for “normal WI38 lung”, “unincubated HT-29” for “unincubated Calu-1 lung”
as §2

hexokinase II [3] = target: T1, hexokinase II (Homo sapiens, UniProt P52789); experiment: In vitro hexokinase II assay; format: biochemical
T1 sequence (P52789 1-917): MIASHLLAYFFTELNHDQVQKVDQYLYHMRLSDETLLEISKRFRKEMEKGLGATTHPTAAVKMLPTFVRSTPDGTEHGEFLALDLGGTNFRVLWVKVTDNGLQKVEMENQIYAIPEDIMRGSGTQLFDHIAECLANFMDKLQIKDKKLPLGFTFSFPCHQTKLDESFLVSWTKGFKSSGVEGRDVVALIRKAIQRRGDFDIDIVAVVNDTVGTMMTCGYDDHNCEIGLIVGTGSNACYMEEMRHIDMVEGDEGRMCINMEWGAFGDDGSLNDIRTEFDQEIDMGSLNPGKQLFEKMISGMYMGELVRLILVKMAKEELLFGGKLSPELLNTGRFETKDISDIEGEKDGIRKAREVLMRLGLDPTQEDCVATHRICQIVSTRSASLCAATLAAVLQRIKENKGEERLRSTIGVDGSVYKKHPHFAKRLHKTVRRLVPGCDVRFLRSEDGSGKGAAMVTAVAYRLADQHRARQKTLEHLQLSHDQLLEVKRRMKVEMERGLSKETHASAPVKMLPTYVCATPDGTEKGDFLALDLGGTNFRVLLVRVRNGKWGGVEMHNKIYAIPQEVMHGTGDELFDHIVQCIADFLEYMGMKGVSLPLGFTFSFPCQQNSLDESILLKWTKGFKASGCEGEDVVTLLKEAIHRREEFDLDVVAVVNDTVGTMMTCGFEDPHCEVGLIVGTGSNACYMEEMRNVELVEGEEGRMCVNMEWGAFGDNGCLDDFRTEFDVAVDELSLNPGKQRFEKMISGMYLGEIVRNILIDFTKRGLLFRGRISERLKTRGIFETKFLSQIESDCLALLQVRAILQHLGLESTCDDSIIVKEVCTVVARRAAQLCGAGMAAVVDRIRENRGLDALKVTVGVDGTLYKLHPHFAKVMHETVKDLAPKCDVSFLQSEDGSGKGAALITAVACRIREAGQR
Method: To test confirm that the zinc-charged peptides inhibit hexokinase II resulting in the inhibition of glycolysis, an in vitro hexokinase II assay was performed. FIG. 7 depicts the results of the in vitro hexokinase II assay. In this test, it was observed that hexokinase II was inhibited by zinc-charged 4H in a dose-dependent manner. […] These findings confirm that the zinc-charged peptides inhibit glycolysis at the hexokinase II enzyme level.

brain tissue glycolysis = experiment: Brain glycolysis in normal mice after oral dosing; format: in vivo; settings: 0.5 mg per mouse per day, 5 days
Method: FIG. 9a is a bar graph depicting the level of glycolysis in the brain tissue of normal mice (N=4) after the mice were orally administered the zinc-charged peptide (4H, 0.5 mg/mouse) for five days compared to a control.
as §2
(§3) In mice fed with 0.5 mg of zinc-charged 4H for 5 days, the brain glycolysis of these mice was enhanced by 44%.

hexokinase II [4] = target: T1, hexokinase II; experiment: Subcellular hexokinase II activity in HT-29; format: cell-based; settings: HT-29, 1 μM, 5 hours
Method: FIG. 14 is a bar graph depicting the subcellular hexokinase II activity in mitochondria, cytosol, and microsome of HT-29 cells incubated with the zinc-charged peptide (4H, 1 μM, for 5 hours) compared to a control of only the vehicle.
FIGS. 14-16 depicts the testing results validating that the zinc-charged peptides inhibit each of these three bioenergetic pathways. FIG. 14 depicts the subcellular hexokinase II activity in mitochondria, cytosol, and microsome to determine whether the zinc-charged peptides inhibit the hexokinase II activity in mitochondria. For this test, HT-29 cancer cells were incubated with zinc-charged 4H at 1 μM for 5 hours. After incubation, sub-cellular fractions including cytosol, microsome, and mitochondria were prepared and the hexokinase II activity on these sub-cellular fractions were tested.

brain ATP = experiment: Brain ATP level in mice after oral dosing; format: in vivo; settings: 4H 0.5 mg per mouse per day, 5 days, normal mice
Method: FIG. 10 is a bar graph depicting the brain ATP level of normal mice after the mice were orally administered the zinc-charged peptide (4H, 0.5 mg/mouse) for five days compared to a control.
FIG. 11a is a bar graph depicting the brain ATP level of mice after the mice were orally administered the zinc-charged peptide (4H3, 1 mg/mouse) for five days compared to a control.
as §3
FIGS. 11a-d provide the graphical representations of these observations. FIG. 11a depicts the level of brain ATP in mice that were orally administered zinc-charged 4H3 compared to mice who were given the control. […] FIG. 11b depicts the level of brain Tau protein ATP in mice that were orally administered zinc-charged 4H3 compared to mice who were given the control. In this test, a 2.7 μg protein load was utilized. […] FIG. 11c depicts a retest of FIG. 11b, but with a lower protein load utilized instead. […] Lastly, FIG. 11d depicts the brain P38 MAPK levels in mice that were orally administered zinc-charged 4H3 compared to mice who were given the control. In this test, the mice given the zinc-charged 4H3 saw their brain P38 MAPK levels decrease by 61%.

HT-29 cancer cells = experiment: Intracellular glucose-6-phosphate in HT-29; format: cell-based; settings: HT-29, 6 hours of incubation
Method: FIG. 6 is a bar graph depicting the level of intracellular Glucose-6-phosphate in HT-29 cancer cells after being incubated with the zinc-charged peptide 4H compared with a control.
(§4) To determine the mechanism of induction of apoptosis to HT-29 cancer cells by the zinc-charged peptides, a low concentration (1 μM) of zinc-charged 4H was incubated with HT-29 cancer cells, followed by biochemical analysis of the cell lysate of the HT-29 cancer cells.
(§5) Furthermore, the decreased lactate was associated with a lower ATP level and a lower Glucose-6-phosphate (G-6-P) level in HT-29 cells.

muscle tissue glycolysis = experiment: Muscle glycolysis in normal mice after oral dosing; format: in vivo; settings: 0.5 mg per mouse per day, 5 days
Method: FIG. 9b is a bar graph depicting the level of glycolysis in the muscle tissue of normal mice after the mice were orally administered the zinc-charged peptide (4H, 0.5 mg/mouse) for five days compared to a control.
as §2, §3

HT-29 colon cancer cells [5] = experiment: Glycolysis (lactate) in HT-29 cell lysate; format: cell-based
Method: as §4, §5, §2

[6] = tested on: various cancer cell lines; experiment: Apoptosis-inducing activity on various cancer cell lines (earlier work); format: cell-based
Excerpt: Cow milk is known to contain numerous proteins and other beneficial compounds for humans.
(§6) Since alpha-lactalbumin is the major milk protein present in milk, this protein was first tested to determine if the bioactive peptides were derived from alpha-Lactalbumin. Purified alpha-lactalbumin was therefore treated with EDTA and zinc acetate.

[7] = Absorption by gastrointestinal tract (earlier work); settings: before digestion with papain
Excerpt: as §6

[8] = Water solubility of the peptide; format: physicochemical; settings: uncharged peptide
Excerpt: The first peptide, listed as SEQ. ID NO. 1 in the accompanying sequence listing, has an amino acid sequence of E-Y-G-L-F-Q-I-S-N-K-L. This peptide, which is derived from natural human alpha-lactalbumin, will be referred to herein as “4H.” The second peptide, listed as SEQ. ID NO. […] This peptide has an amino acid sequence of E-Y-G-L-F-Q-I-S-N-K-K and will be referred to herein as “4H3.” Both these peptides were charged with zinc ions using the disclosed method to activate their apoptotic activities. Further, once these two peptides were charged with zinc ions, additional effects such as reducing Tau protein, increasing brain ATP levels and inhibiting P38 in the brain were observed, showing that these zinc-charged peptides further have a role in treating diseases involving tauopathy, such as Alzheimer's Disease and Parkinson's Disease.
Disclosed herein are two zinc-charged chemically synthesized peptides based upon the alpha-lactalbumin that are able to treat cancer and diseases involving tauopathy once activated by the disclosed method of charging the peptides with zinc ions. The first peptide, 4H, has an amino acid sequence of E-Y-G-L-F-Q-I-S-N-K-L (Seq. No. 1). The second peptide, 4H3, has an amino acid sequence of E-Y-G-L-F-Q-I-S-N-K-K (Seq. No. 2). […]

Compound: O=c1c(-c2ccc(O)cc2)coc2cc(O[C@@H]3O[C@H](CO)[C@@H](O)[C@H](O)[C@H]3O)cc(O)c12 [genistin]
- interaction of chemotherapy drug with zinc-charged peptide (apoptosis) (HT-29 colon cancer cells [1]): synergistic

Compound: O=c1[nH]cc(F)c(=O)[nH]1 [5-FU]
- interaction of chemotherapy drug with zinc-charged peptide (apoptosis) (HT-29 colon cancer cells [1]): synergistic

- hexokinase II inhibited (hexokinase II [3]; 5 μM): 28.6%
- hexokinase II inhibited (hexokinase II [3]; 10 μM): 79.1%
- hexokinase II inhibited (hexokinase II [3]; 20 µM): 94.6%
- mitochondria associated hexokinase II activity inhibited (hexokinase II [4]): 53%
Compound: E-Y-G-L-F-Q-I-S-N-K-L (EYGLFQISNKL; also: charged with zinc ions) [zinc-charged 4H, ID NO; 1 peptide derived from human alpha-lactalbumin, charged with zinc ions]
- glycolysis inhibited (Calu-1 lung cancer cells): 11.1%
- glycolysis inhibition (normal WI38 lung cells): 0%
- glycolysis inhibited [2]: 10.5%
- percentage of apoptosis in HT-29 after adding zinc-charged 4H to chemotherapy drugs (HT-29 colon cancer cells [1]; 4 μM for 6 hours after 12 hours drug pre-incubation): significantly increased
- brain glycolysis enhanced (brain tissue glycolysis): 44%
- increase in brain ATP level (brain ATP): 31.4%
- reduction of intracellular G-6-P level (HT-29 cancer cells): 39.6%
- muscle glycolysis increased (muscle tissue glycolysis): 15%
- lactate lower than control cells (HT-29 colon cancer cells [5]; 1 μM, HT-29 lysate, FIG. 4): 81.4%
- glycolysis inhibited (HT-29 colon cancer cells [5]; HT-29, FIG. 8a): up to 34.7%

Compound: COc1cccc2c1C(=O)c1c(O)c3c(c(O)c1C2=O)C[C@@](O)(C(=O)CO)C[C@@H]3O[C@H]1C[C@H](N)[C@H](O)[C@H](C)O1 [doxorubicin]
- interaction of chemotherapy drug with zinc-charged peptide (apoptosis) (HT-29 colon cancer cells [1]): synergistic

Compound: zinc-bound alpha-lactalbumin: purified alpha-lactalbumin treated with EDTA and zinc acetate
- apoptosis-inducing activity [6]: contain apoptosis-inducing activity
- absorption by gastrointestinal tract [7]: unable to be absorbed

Compound: O=NN(CCCl)C(=O)NCCCl [carmustine]
- interaction of chemotherapy drug with zinc-charged peptide (apoptosis) (HT-29 colon cancer cells [1]): synergistic

- water solubility compared with 4H [8]: more water-soluble
Compound: EYGLFQISNKK [4H3, E-Y-G-L-F-Q-I-S-N-K-K]

Compound: Cc1c2oc3c(C)ccc(C(=O)N[C@@H]4C(=O)N[C@H](C(C)C)C(=O)N5CCC[C@H]5C(=O)N(C)CC(=O)N(C)[C@@H](C(C)C)C(=O)O[C@@H]4C)c3nc-2c(C(=O)N[C@@H]2C(=O)N[C@H](C(C)C)C(=O)N3CCC[C@H]3C(=O)N(C)CC(=O)N(C)[C@@H](C(C)C)C(=O)O[C@@H]2C)c(N)c1=O [actinomycin] (I: T[dV]P[Sar][NMeV] / II: T[dV]P[Sar][NMeV]; ester I:1-I:C, II:1-II:C; linker I:N-II:N via Actinocin(9to1))
- interaction of chemotherapy drug with zinc-charged peptide (apoptosis) (HT-29 colon cancer cells [1]): synergistic
